Assay results as given in patent US20240174723A1, “STAPLED ANTIMICROBIAL PEPTIDES (STAMPS) AND USES THEREOF” (Lytica Therapeutics, Inc., priority 2021, published 2024).
Values after ≈ are worked out from the molar mass of the structure shown. Positions of bridges follow the written chain, without caps; N, C: chain ends. Non-standard residues stand in square brackets, D forms with d. Residues, ends and D or L forms follow the SMILES beside them. Phe(4-tBu) = CC(C)(C)c1ccc(C[C@H](N)C(=O)O)cc1; PEG4 = NCCOCCOCCOCCOCCC(=O)O; S5 = C=CCCC[C@](C)(N)C(=O)O; Dab = NCC[C@H](N)C(=O)O

Tests used:
[1] = system: S. aureus; type: cell-based, Staphylococcus aureus
Procedure, shortened: (§1)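 Colonies are grown overnight at 37 °C, diluted and regrown 3-4 h. Bacteria in MHB or MHB II are then added to serial peptide dilutions to reach 5×10^5 CFU/ml. Plates are incubated 20-24 h at 37 °C and scored for the lowest concentration without visible growth.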

[2] = system: A. baumannii; type: cell-based, Acinetobacter baumannii
Procedure, shortened: as §1

[3] = in vitro; type: cell-based; conditions: human
Procedure, shortened: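 LDH release (absorbance at 490 nm) measured in the media of cells treated with serially diluted StAMPs or vehicle at 37 °C: 90 min for renal RPTEC, 48 h for liver HepG2. Cells were seeded overnight beforehand and media refreshed before dosing.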

[4] = system: K. pneumoniae; type: cell-based, Klebsiella pneumoniae
Procedure, shortened: as §1

[5] = in vitro; type: cell-based; conditions: human, Inhibitory Concentration at 50% Cytotoxicity (IC50) Human Liver Cells (HepG2)
Procedure, shortened: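 Cytotoxicity read by CellTiter-Glo luminescence after 48 h at 37 °C exposure to serially diluted StAMPs or vehicle. HepG2 cells were grown in EMEM plus 10% FBS and given 4 h to attach before dosing; peptides came from a 5 mg/mL aqueous stock.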

[6] = system: P. aeruginosa; type: cell-based, Pseudomonas aeruginosa
Procedure, shortened: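 MIC taken as lowest peptide concentration with no visible growth after 20-24 h at 37 °C. Peptide serial dilutions from water stocks met P. aeruginosa inoculum (5×10^5 CFU/ml final) in MHB or MHB II, per a CLSI-adapted microbroth protocol.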

[7] = system: E. coli; type: cell-based, Escherichia coli
Procedure, shortened: as §1

| SMILES | Minimum Inhibitory Concentration (MIC) S. aureus [1] | Minimum Inhibitory Concentration (MIC) A. baumannii [2] | IC50 at 90 min [3] | Minimum Inhibitory Concentration (MIC) K. pneumoniae [4] | Minimum Inhibitory Concentration (MIC) P. aeruginosa [6] | Minimum Inhibitory Concentration (MIC) E. coli [7] | IC50 at 48 hours [5] |
| --- | --- | --- | --- | --- | --- | --- | --- |
| CC(C)[C@@H]1NC(=O)[C@@](C)(NC(=O)[C@H](C)NC(=O)[C@H](CCCCN)NC(=O)CNC(=O)[C@H](Cc2ccccc2)NC(=O)[C@H](CCCCN)NC(=O)[C@H](CCCCN)NC(=O)[C@H](CCCCN)NC(=O)[C@H](CCCCN)NC(=O)[C@H](CCCCN)NC(=O)[C@]2(C)CCCC=CCCC[C@](C)(NC(=O)CN)C(=O)NCC(=O)N[C@@H](CCCCN)C(=O)N[C@@H](Cc3ccccc3)C(=O)N2)CCCC=CCCC[C@@](C)(C(=O)N[C@@H](C)C(=O)N[C@@H](CCCCN)C(=O)N[C@@H](CCCCN)C(=O)NCCOCCOCCOCCOCCC(N)=O)NC(=O)[C@H](CCC(=O)O)NC(=O)CNC1=O [compound 74] (H-G[S5]GKF[S5]KKKKKFGKA[S5]VGE[S5]AKK[PEG4]-NH2; staple 2-6, 16-20) | >64 µg/mL | 2 µg/mL | > 200 µg/mL | 4 µg/mL | 4 µg/mL | 2 µg/mL | 430 µg/mL (≈ 153 µM) |
| CC(C)C[C@@H]1NC(=O)[C@H](C(C)C)NC(=O)[C@@](C)(NC(=O)[C@H](C)NC(=O)[C@H](CCCCN)NC(=O)CNC(=O)[C@H](Cc2ccccc2)NC(=O)[C@H](CCCCN)NC(=O)[C@H](CCCCN)NC(=O)[C@H](CCCCN)NC(=O)[C@H](CO)NC(=O)[C@H](Cc2c[nH]cn2)NC(=O)[C@]2(C)CCCC=CCCC[C@](C)(NC(=O)CN)C(=O)NCC(=O)N[C@@H](CCCCN)C(=O)N[C@@H](Cc3ccccc3)C(=O)N2)CCCC=CCCC[C@@](C)(C(=O)N[C@@H](C)C(=O)N[C@@H](CCCCN)C(=O)N[C@@H](CCCCN)C(N)=O)NC(=O)[C@H](CCC(=O)O)NC1=O [compound 12] (H-G[S5]GKF[S5]HSKKKFGKA[S5]VLE[S5]AKK-NH2; staple 2-6, 16-20) | >64 µg/mL | 2 µg/mL | ~200 µg/mL (≈ 77.3 µM) | 4 µg/mL | 4 µg/mL | 2 µg/mL | ~200 µg/mL (≈ 77.3 µM) |
| CC(C)[C@@H]1NC(=O)[C@@](C)(NC(=O)[C@H](C)NC(=O)[C@H](CCCCN)NC(=O)CNC(=O)[C@H](Cc2ccccc2)NC(=O)[C@H](CCCCN)NC(=O)[C@H](CCCCN)NC(=O)[C@H](CCCCN)NC(=O)[C@H](CO)NC(=O)[C@H](Cc2c[nH]cn2)NC(=O)[C@]2(C)CCCC=CCCC[C@](C)(NC(=O)CN)C(=O)NCC(=O)N[C@@H](CCCCN)C(=O)N[C@@H](Cc3c[nH]c4ccccc34)C(=O)N2)CCCC=CCCC[C@@](C)(C(=O)N[C@@H](C)C(=O)N[C@@H](CCCCN)C(=O)N[C@@H](CCCCN)C(N)=O)NC(=O)[C@H](CCC(=O)O)NC(=O)CNC1=O [compound 59] (H-G[S5]GKW[S5]HSKKKFGKA[S5]VGE[S5]AKK-NH2; staple 2-6, 16-20) | >64 µg/mL | 4 µg/mL | > 200 µg/mL | 64 µg/mL | 8 µg/mL | 4 µg/mL | > 200 µg/mL |
| CC(C)[C@@H]1NC(=O)[C@@](C)(NC(=O)[C@H](C)NC(=O)[C@H](CCCCN)NC(=O)CNC(=O)[C@H](Cc2ccccc2)NC(=O)[C@H](CCCCN)NC(=O)[C@H](CCCCN)NC(=O)[C@H](CCCCN)NC(=O)[C@H](CCCCN)NC(=O)[C@H](CCCCN)NC(=O)[C@]2(C)CCCC=CCCC[C@](C)(NC(=O)CN)C(=O)NCC(=O)N[C@@H](CCCCN)C(=O)N[C@@H](Cc3ccccc3)C(=O)N2)CCCC=CCCC[C@@](C)(C(=O)N[C@@H](C)C(=O)N[C@@H](CCCCN)C(=O)N[C@@H](CCCCN)C(=O)NCC(=O)NCC(=O)N[C@@H](CCC(N)=O)C(N)=O)NC(=O)[C@H](CCC(=O)O)NC(=O)CNC1=O [compound 77] (H-G[S5]GKF[S5]KKKKKFGKA[S5]VGE[S5]AKKGGQ-NH2; staple 2-6, 16-20) | >64 µg/mL | 3 µg/mL | > 200 µg/mL | 16 µg/mL | 4 µg/mL | 4 µg/mL | > 200 µg/mL |
| CC(C)[C@@H]1NC(=O)[C@@](C)(NC(=O)[C@H](C)NC(=O)[C@H](CCCCN)NC(=O)CNC(=O)[C@H](Cc2ccccc2)NC(=O)[C@H](CCCCN)NC(=O)[C@H](CCCCN)NC(=O)[C@H](CCCCN)NC(=O)[C@H](CCCCN)NC(=O)[C@H](CCCCN)NC(=O)[C@]2(C)CCCC=CCCC[C@](C)(NC(=O)CN)C(=O)NCC(=O)N[C@@H](CCCCN)C(=O)N[C@@H](Cc3ccccc3)C(=O)N2)CCCC=CCCC[C@@](C)(C(=O)N[C@@H](C)C(=O)N[C@@H](CCCCN)C(=O)N[C@@H](CCCCN)C(=O)NCC(=O)NCC(=O)N[C@@H](CCC(=O)O)C(N)=O)NC(=O)[C@H](CCC(=O)O)NC(=O)[C@H](Cc2ccc(C(C)(C)C)cc2)NC1=O [compound 36] (H-G[S5]GKF[S5]KKKKKFGKA[S5]V[Phe(4-tBu)]E[S5]AKKGGE-NH2; staple 2-6, 16-20) | 64 µg/mL | 2 µg/mL | 96 µg/mL (≈ 32.5 µM) | 2 µg/mL | 4 µg/mL | 2 µg/mL | > 200 µg/mL |

Continued, in another order:

| Minimum Inhibitory Concentration (MIC) S. aureus [1] | Minimum Inhibitory Concentration (MIC) A. baumannii [2] | IC50 at 90 min [3] | Minimum Inhibitory Concentration (MIC) K. pneumoniae [4] | Minimum Inhibitory Concentration (MIC) P. aeruginosa [6] | Minimum Inhibitory Concentration (MIC) E. coli [7] | SMILES | IC50 at 48 hours [5] |
| --- | --- | --- | --- | --- | --- | --- | --- |
| >64 µg/mL | 4 µg/mL | > 200 µg/mL | >64 µg/mL | 8 µg/mL | 6 µg/mL | CC(C)[C@@H]1NC(=O)[C@@](C)(NC(=O)[C@H](C)NC(=O)[C@H](CCCCN)NC(=O)CNC(=O)[C@H](Cc2ccccc2)NC(=O)[C@H](CCCCN)NC(=O)[C@H](CCCCN)NC(=O)[C@H](CCCCN)NC(=O)[C@H](CCC(N)=O)NC(=O)[C@H](Cc2c[nH]cn2)NC(=O)[C@]2(C)CCCC=CCCC[C@](C)(NC(=O)CN)C(=O)NCC(=O)N[C@@H](CCCCN)C(=O)N[C@@H](Cc3ccccc3)C(=O)N2)CCCC=CCCC[C@@](C)(C(=O)N[C@@H](C)C(=O)N[C@@H](CCCCN)C(=O)N[C@@H](CCCCN)C(N)=O)NC(=O)[C@H](CCC(=O)O)NC(=O)CNC1=O [compound 7] (H-G[S5]GKF[S5]HQKKKFGKA[S5]VGE[S5]AKK-NH2; staple 2-6, 16-20) | > 200 µg/mL |
| 64 µg/mL | 8 µg/mL | 84 µg/mL (≈ 36.3 µM) | 32 µg/mL | 2 µg/mL | 8 µg/mL | CC(C)[C@@H]1NC(=O)[C@@](C)(NC(=O)[C@H](C)NC(=O)[C@H](CCN)NC(=O)CNC(=O)[C@H](Cc2ccccc2)NC(=O)[C@H](CCN)NC(=O)[C@H](CCN)NC(=O)[C@H](CCN)NC(=O)[C@H](CCN)NC(=O)[C@H](CCN)NC(=O)[C@]2(C)CCCC=CCCC[C@](C)(NC(=O)CN)C(=O)NCC(=O)N[C@@H](CCN)C(=O)N[C@@H](Cc3ccccc3)C(=O)N2)CCCC=CCCC[C@@](C)(C(=O)N[C@@H](C)C(=O)N[C@@H](CCN)C(=O)N[C@@H](CCN)C(N)=O)NC(=O)[C@H](CCC(=O)O)NC(=O)CNC1=O [compound 23] (H-G[S5]G[Dab]F[S5][Dab][Dab][Dab][Dab][Dab]FG[Dab]A[S5]VGE[S5]A[Dab][Dab]-NH2; staple 2-6, 16-20) | 39 µg/mL (≈ 16.9 µM) |
| >64 µg/mL | 2 µg/mL | 294 µg/mL (≈ 116 µM) | 32 µg/mL | 8 µg/mL | 2 µg/mL | CC(C)[C@@H]1NC(=O)[C@@](C)(NC(=O)[C@H](C)NC(=O)[C@H](CCCCN)NC(=O)CNC(=O)[C@H](Cc2ccccc2)NC(=O)[C@H](CCCCN)NC(=O)[C@H](CCCCN)NC(=O)[C@H](CCCCN)NC(=O)[C@H](CO)NC(=O)[C@H](Cc2c[nH]cn2)NC(=O)[C@]2(C)CCCC=CCCC[C@](C)(NC(=O)CN)C(=O)NCC(=O)N[C@@H](CCCCN)C(=O)N[C@@H](Cc3ccccc3)C(=O)N2)CCCC=CCCC[C@@](C)(C(=O)N[C@@H](C)C(=O)N[C@@H](CCCCN)C(=O)N[C@@H](CCCCN)C(N)=O)NC(=O)[C@H](CCC(=O)O)NC(=O)CNC1=O [compound 1] (H-G[S5]GKF[S5]HSKKKFGKA[S5]VGE[S5]AKK-NH2; staple 2-6, 16-20) | 391 µg/mL (≈ 154 µM) |
